# Source: patent US20260242394A1, “USP2 INHIBITORS AND METHODS OF USING THE SAME FOR THE TREATMENT OF DISEASES” (ICAHN SCHOOL OF MEDICINE AT MOUNT SINAI, priority 2023, published 2026)
# Tested on: ACE2-dependent pseudotypes
# Assay type: cell-based
compound,measurement,value
"Cc1ccc(S(=O)(=O)Nc2ccc(C(F)(F)F)cc2C(=O)Nc2nc(-c3ccc(Br)cc3)cs2)cc1 [XH161-102 (MS102), N-(4-(4-bromophenyl)thiazol-2-yl)-2-((4-methylphenyl)sulfonamido)-5-(trifluoromethyl)benzamide]",activity in preventing cell entry of ACE2-dependent pseudotypes,enhanced activity
